In US9018214B2, “Bicyclic heterocycle compounds and their uses in therapy” (Astex Therapeutics Limited, priority 2011, dated 2015):
Where a name gives a salt, the structure may show the parent alone. Read-outs that look alike come from different tables or passages of the source.

Assays:
[1] = test system: EVSA-T (human breast carcinoma); assay: Anti-proliferative activity, Alamar Blue assay, EVSA-T; assay type: cell-based; conditions: Homo sapiens, EVSA-T; for EC50: read-out: EVSA-T prolif (EC50)
[2] = test system: MDA-MB-231 (human breast carcinoma); assay: Anti-proliferative activity, Alamar Blue assay, MDA-MB-231; assay type: cell-based; conditions: MDA-MB-231, 72 h, read-out: EC50, inhibition of cell growth
[3] = biological target: BIR3 domain of human XIAP (residues 252-350) (Homo sapiens (Human), UniProt P98170); assay: XIAP in vitro competitive displacement binding assay (fluorescence polarization); conditions: for IC50: read-out: IC50 or PI Xiap: IC50
[4] = biological target: BIR3 domain of human cIAP-1 (residues 267-363) (Homo sapiens (Human), UniProt Q13490); assay: cIAP-1 in vitro competitive displacement binding assay (fluorescence polarization; Probe A AVPIK(5&6FAM)-amide or Probe B AbuRPFK(5&6FAM)-amide)
[5] = 3 h, read-out: IC50 or PI cIAP1: PI
[6] = 1 h, read-out: IC50 or PI Xiap: PI
[7] = 1 h, @ 0.04 μM, read-out: IC50 or PI Xiap: PI
[8] = 3 h, Probe B, @ 0.012 μM, read-out: IC50 or PI cIAP1: PI
[9] = read-out: IC50 or PI cIAP1: IC50

| SMILES | EC50 ([1]; 72 h) | inhibition at […] [4, 5] | EC50 ([1]; 72 hours, Alamar Blue) | inhibition at 0.04 µM [3, 6] | further results |
| --- | --- | --- | --- | --- | --- |
| COC[C@H]1CN[C@H](C)CN1CC(=O)N1CC(C)(C)c2cc(F)c(S(=O)(=O)c3ccc(OC)cc3)cc21 [Example 60, 1-[5-Fluoro-6-(4-methoxy-benzenesulfonyl)-3,3-dimethyl-2,3-dihydro-indol-1-yl]-2-((2R,5R)-2-methoxymethyl-5-methyl-piperazin-1-yl)-ethanone dihydrochloride salt] | 690 nM |  |  |  | EC50 [2]: < 10000 nM |
| COC[C@H]1CN[C@H](C)CN1CC(=O)N1CC(C)(C)c2cnc(Cc3ccccc3)cc21 [Example 63, 1-(6-Benzyl-3,3-dimethyl-2,3-dihydro-pyrrolo[3,2-c]pyridin-1-yl)-2-((2R,5R)-2-methoxy-methyl-5-methyl-piperazin-1-yl)-ethanone hydrochloride salt] | 100 nM |  |  |  | EC50 [2]: < 10000 nM |
| C[C@@H]1CN(CC(=O)N2CC(C)(C)c3ncc(Cc4ccccc4F)cc32)[C@@H](CN2CCOCC2)CN1 [Example 247, 1-{6-[(2-Fluorophenyl)methyl]-3,3-dimethyl-1H,2H,3H-pyrrolo[3,2-b]pyridin-1-yl}-2-[(2R,5R)-5-methyl-2-(morpholin-4-ylmethyl)piperazin-1-yl]ethan-1-one dihydrochloride] | 33 nM | 80% |  |  | IC50 [3]: 66 nM |
| CCCC(F)(F)c1cnc2c(c1)N(C(=O)CN1C[C@@H](C)NC[C@@H]1CN1CCOC[C@H]1CC)CC2(C)C [Example 248, 1-[6-(1,1-Difluorobutyl)-3,3-dimethyl-1H,2H,3H-pyrrolo[3,2-b]pyridin-1-yl]-2-[(2R,5R)-2-{[(3R)-3-ethylmorpholin-4-yl]methyl]-5-methylpiperazin-1-yl]ethan-1-one dihydrochloride] |  | 91% | 10 nM | 69% |  |
| C[C@@H]1CN(CC(=O)N2CC(C)(C)c3ncc(Cc4ccccc4F)cc32)[C@@H](CN2CCCC2=O)CN1 [Example 249, 1-{[(2R,5R)-1-(2-{6-[(2-Fluorophenyl)methyl]-3,3-dimethyl-1H,2H,3H-pyrrolo[3,2-b]pyridin-1-yl}-2-oxoethyl)-5-methylpiperazin-2-yl]methyl}pyrrolidin-2-one hydrochloride] |  |  | 10 nM |  | inhibition at 0.04 µM [3, 7]: 56%; inhibition at […] [4, 8]: 90% |
| C[C@@H]1CN(CC(=O)N2CC(C)(C)c3cnc(Cc4ccc(F)cc4)cc32)[C@@H](CN2CCOC[C@H]2C)CN1 [Example 251, 1-{6-[(4-Fluorophenyl)methyl]-3,3-dimethyl-1H,2H,3H-pyrrolo[3,2-c]pyridin-1-yl}-2-[(2R,5R)-5-methyl-2-{[(3R)-3-methylmorpholin-4-yl]methyl}piperazin-1-yl]ethan-1-one dihydrochloride] |  | 99% | 0.65 nM | 68% |  |
| CCCC(F)(F)c1cc2c(cn1)C(C)(C)CN2C(=O)CN1C[C@@H](C)NC[C@@H]1CN1CCOC[C@H]1C [Example 252, 1-[6-(1,1-Difluorobutyl)-3,3-dimethyl-1H,2H,3H-pyrrolo[3,2-c]pyridin-1-yl]-2-[(2R,5R)-5-methyl-2-{[(3R)-3-methylmorpholin-4-yl]methyl}piperazin-1-yl]ethan-1-one diydrochloride] |  |  | 4 nM |  | inhibition at 0.04 µM [3, 7]: 72%; inhibition at […] [4, 8]: 91% |
| CC[C@@H]1COCCN1C[C@H]1CN[C@H](C)CN1CC(=O)N1CC(C)(C)c2ncc(C(C)(F)F)cc21 [Example 253, 1-[6-(1,1-Difluoroethyl)-3,3-dimethyl-1H,2H,3H-pyrrolo[3,2-b]pyridin-1-yl]-2-[(2R,5R)-2-{[(3R)-3-ethylmorpholin-4-yl]methyl}-5-methylpiperazin-1-yl]ethan-1-one dihydrochloride] | 51 nM |  |  |  | IC50 [3]: 50 nM; IC50 [4]: < 1000 nM; IC50 [4, 9]: 17 nM |
| CC[C@@H]1COCCN1C[C@H]1CN[C@H](C)CN1CC(=O)N1CC(C)(C)c2ncc(Cc3ccc(F)cc3)cc21 [Example 254, 2-[(2R,5R)-2-{[(3R)-3-Ethylmorpholin-4-yl]methyl}-5-methylpiperazin-1-yl]-1-{6-[(4-fluorophenyl)methyl]-3,3-dimethyl-1H,2H,3H-pyrrolo[3,2-b]pyridin-1-yl}ethan-1-one dihydrochloride] |  | 98% | 1.9 nM | 51% |  |
| CC[C@@H]1COCCN1C[C@H]1CN[C@H](C)CN1CC(=O)N1CC(C)(C)c2ncc(C(F)(F)CC)cc21 [Example 255, 1-[6-(1,1-Difluoropropyl)-3,3-dimethyl-1H,2H,3H-pyrrolo[3,2-b]pyridin-1-yl]-2-[(2R,5R)-2-{[(3R)-3-ethylmorpholin-4-yl]methyl}-5-methylpiperazin-1-yl]ethan-1-one dihydrochloride] | 32 nM |  |  | 49% | IC50 [4]: < 1000 nM; IC50 [4, 9]: 14 nM |
| CCC(F)(F)c1cnc2c(c1)N(C(=O)CN1C[C@@H](C)NC[C@@H]1CN1CCOC[C@H]1COC)CC2(C)C [Example 256, 1-[6-(1,1-Difluoropropyl)-3,3-dimethyl-1H,2H,3H-pyrrolo[3,2-b]pyridin-1-yl]-2-[(2R,5R)-2-{[(3R)-3-(methoxymethyl)morpholin-4-yl]methyl}-5-methylpiperazin-1-yl]ethan-1-one dihydrochloride] | 78 nM |  |  |  | IC50 [3]: 53 nM; IC50 [4]: < 1000 nM; IC50 [4, 9]: 24 nM |
| CCCC(F)(F)c1cnc2c(c1)N(C(=O)CN1C[C@@H](C)NC[C@@H]1CN1CCOC[C@H]1C)CC2(C)C [Example 260, 1-[6-(1,1-Difluoro-butyl)-3,3-dimethyl-2,3-dihydro-pyrrolo[3,2-b]pyridin-1-yl]-2-[(2R,5R)-5-methyl-2-((R)-3-methyl-morpholin-4-ylmethyl)-piperazin-1-yl]-ethanone dihydrochloride] |  | 90% | 4.4 nM | 73% |  |
| C[C@@H]1CN(CC(=O)N2CC(C)(C)c3ncc(Cc4ccccc4F)cc32)[C@@H](CN2CCOC[C@H]2C)CN1 [Example 261, 1-[6-(2-Fluoro-benzyl)-3,3-dimethyl-2,3-dihydro-pyrrolo[3,2-b]pyridin-1-yl]-2-[(2R,5R)-5-methyl-2-((R)-3-methyl-morpholin-4-ylmethyl)-piperazin-1-yl]-ethanone dihydrochloride] |  | 96% | 2.1 nM | 55% |  |
| C[C@@H]1CN(CC(=O)N2CC(C)(C)c3ncc(Cc4ccc(F)cc4F)cc32)[C@@H](CN2CCOC[C@H]2C)CN1 [Example 264, 1-[6-(2,4-Difluoro-benzyl)-3,3-dimethyl-2,3-dihydro-pyrrolo[3,2-b]pyridin-1-yl]-2-[(2R,5R)-5-methyl-2-((R)-3-methyl-morpholin-4-ylmethyl)-piperazin-1-yl]-ethanone, dihydrochloride] |  | 98% | 1 nM | 68% |  |
| CC[C@@H](C(=O)N1CC(C)(C)c2ccc(C#N)cc21)N1CCN[C@H](C)C1 [Example 266, 3,3-Dimethyl-1-[(2S)-2-[(3R)-3-methylpiperazin-1-yl]butanoyl]-2,3-dihydro-1H-indole-6-carbonitrile, hydrochloride salt] |  |  |  |  | inhibition at 10 µM ([1]; at 10 μM, read-out: EVSA-T prolif: % inhibition): -20%; inhibition at 150 µM [3, 6]: -6%; inhibition at 50 µM [4, 5]: 24% |
